# Laboratory results from US20220339214A1, “KIRIN FRUIT FERMENTATION AND METHODS FOR IMPROVING METABOLISM BY USING THE SAME” (TCI CO., LTD., priority 2021, published 2022).
# Experiments:
# mouse myoblasts C2C12 [1] = test: Proliferation of skeletal muscle cells (Click-iT Plus EdU, flow cytometry); assay type: cell-based; conditions: 24 h
# Excerpt: Experimental cell strain: mouse myoblasts C2C12 (hereinafter referred to as C2C12 cells) of the C2C12 cell strain (ATCC CRL-1772™) purchased from the American Type Culture Collection (ATCC®).
# Culture medium: Dulbecco's modified Eagle's medium, purchased from Gibco, US, Gat.11965-092. 10% of fetal bovine serum (FBS), purchased from Gibco, US, Gat.10437-028. 1% of antibiotic, purchased from Gibco, US, Gat.15240-062.
# Reagents: 10×DPBS buffer (purchased from Gibco, Gat 14200-075), trypan blue dead cell dye (purchased from Lonza, Cat 17-942E), trypsin-EDTA (purchased from Gibco, Cat. 15400-054), and cell proliferation Click-iT™ Plus EdU kit (Invitrogen; Cat. C10632).
# First, 1×10^5 cells were inoculated into each well of a 6-well culture plate to culture at 37° C. for 24 h. The cultured cells were divided into three groups: an experimental group, a blank group, and a control group.
# Blank group: only a culture medium was added to culture at 37° C. for 24 h.
# Control group: 10% of PBS was added to culture at 37° C. for 24 h, which was used as a positive control group. […]
# Next, the specific reagent EdU from the cell proliferation kit was added to culture for 2 h. […] Finally, the fluorescence signal of the to-be-tested cell solution in each well was measured by the flow cytometry (under 488 nm of excitation light and 530/30 nm of scattered light), and the quantity of cells was calculated. […]
# mouse myoblasts C2C12 [2] = test: Activity of mitochondria in skeletal muscle cells affected by active substances (fluorescence picture); assay type: cell-based; conditions: 100 nM, 24 h, compared with blank group
# Protocol: The experimental medium was removed from the culture plate, and the culture plate was washed with 1 mL of 1×PBS for two times. […] was added into each well to react for 5 min in the dark. After the reaction was completed, a cell medium was added to stop the reaction. The cells and cell medium in each well were collected in a 1.5 mL centrifuge tube, and the centrifuge tube containing the cells and cell medium was centrifuged at 400×g for 5 min. After the centrifugation, a supernatant was removed. The cells were washed with 1×DPBS, and then the centrifuge tube containing the cells was centrifuged again at 400×g for 5 min. After the centrifugation again, a supernatant was removed from each centrifuge tube, and 100 μL of JC-1 dye was added into each centrifuge tube and left to stand for 15 min in the dark. After 15 min, each centrifuge tube was centrifuged at 400×g for 5 min. […] Finally, the fluorescence signal of the to-be-tested cell solution in each well was measured by the flow cytometry (excitation light: 488 nip and scattered light: 527 nm & 590 nm), and the membrane potential of mitochondria was calculated, to analyze the activity of mitochondria. […] Finally, a picture of the fluorescence signal of the to-be-tested cell solution was taken by a. camera to observe the activity of mitochondria.
compound,measurement,setting,value
"O[C@H]1[C@H](O)[C@@H](O)[C@H](O)[C@@H](O)[C@H]1O [TCI-GHU-01, myo-inositol]",increase of quantity of skeletal muscle cells,"mouse myoblasts C2C12 [1]; 100 nM, vs blank group",48.2%
same,quantity of skeletal muscle cells relative to the blank group,"mouse myoblasts C2C12 [1]; TCI-GHU-01 100 nM, positive control 10%, blank group regarded as 100%",148.2%
same,activity of mitochondria in skeletal muscle cells (small light spots around the nuclei),mouse myoblasts C2C12 [2],higher than that of the blank group
